pIC50: −log10 of the molar value. Where a SMILES comes first, the peptide text is derived from it.
Columns and labels:
[1] = system: A(H1N1)pdm09 virus; format: cell-based
[2] = system: SARS-CoV-2
[3] = system: A(H1N1)pdm09 virus
[4] = system: A(H1N1)pdm09 virus; remark: listed apart in the source

Row | Compound | inhibition of P10 virus replication [1] | inhibition of P15 virus replication [1] | pIC50 ([1]; read-out: IC50 against parent A(H1N1)pdm09 virus (P0)) | inhibition of viral replication, SARS-CoV-2 [2] [fold] | inhibition of viral replication, A(H1N1)pdm09 virus [3] [fold] | viral RNP release into nuclei [4] | inhibition of P30 and P40 virus replication [1]
2 | CC[C@H](C)[C@H](NC(=O)[C@H](C)NC(=O)CNC(=O)[C@@H](N)CC(N)=O)C(=O)N[C@@H](CS)C(=O)N[C@@H](Cc1c[nH]c2ccccc12)C(=O)NCC(=O)N1CCC[C@H]1C(=O)N[C@@H](CS)C(=O)N1CCC[C@H]1C(=O)N[C@H](C(=O)N[C@@H](C)C(=O)N[C@@H](Cc1ccccc1)C(=O)N[C@@H](CCCNC(=N)N)C(=O)N[C@@H](CCC(N)=O)C(=O)N[C@H](C(=O)NCC(=O)N[C@@H](CC(N)=O)C(=O)N[C@@H](CS)C(=O)NCC(=O)N[C@@H](CCCNC(=N)N)C(=O)N[C@@H](Cc1ccccc1)C(=O)N[C@@H](CCCNC(=N)N)C(=O)N[C@H](C(=O)N[C@@H](CCCNC(=N)N)C(=O)N[C@@H](CS)C(=O)N[C@@H](CS)C(=O)N[C@@H](CCCNC(=N)N)C(=O)N[C@H](C(=O)N[C@@H](CCCNC(=N)N)C(=O)O)[C@@H](C)CC)C(C)C)[C@@H](C)CC)[C@@H](C)O [P9R] (H-NGAICWGPCPTAFRQIGNCGRFRVRCCRIR-OH) |  |  |  | 1000 | > 20 | could inhibit viral RNP release into nuclei | could efficiently inhibit P30 and P40 virus replication

— US20240307487A1 (priority 2020, published 2024)
